Data on five compounds can be found in US20100197650A1, “COMPOSITIONS AND METHODS OF TREATMENT COMPRISING CEFTAROLINE” (FOREST LABORATORIES HOLDINGS LTD., priority 2008, published 2010).

The test system of one assay is Enterococcus faecalis. In words: MIC, broth microdilution (Example 1). It is filed as cell-based. Conditions: Enterococcus faecalis, ATCC29212, E. faecalis 0101 (ATCC 29212), FIC control; read-out: MIC. Here is the method: (§1) Stock solutions of all antibacterial agents were prepared at 80-fold (80×) the final target concentration in the appropriate solvent and the solution was allowed to stand for 60 minutes. All antibacterial agents were in solution under these conditions. The final drug concentrations in the FIC assay plates were set to bracket the MIC value of each agent for each test organism, unless the strain was totally resistant to the test agent.
(§2) The test organisms were originally received from clinical sources, or from the American Type Culture Collection. Upon receipt, the isolates were streaked onto the appropriate growth medium: Chocolate Agar for H. influenzae, Tryptic Soy Agar II (Becton Dickinson, Sparks, Md.) supplemented with 5% defibrinated sheep blood for streptococci, and unsupplemented Tryptic Soy Agar II for all other organisms. Colonies were harvested from these plates and a cell suspension was prepared in Tryptic Soy Broth (Becton Dickinson) containing cryoprotectant. Aliquots were then frozen at −80° C. On the day prior to assay, the frozen seeds of the organisms to be tested in that session were thawed and streaked for isolation onto the appropriate agar medium plates and incubated overnight at 35° C.
(§3) The test medium for H. influenzae was Haemophilus Test Medium. Streptococci were tested in Mueller Hinton II Broth (Becton Dickinson; Lot 6235472) supplemented with 2% lysed horse blood (Cleveland Scientific, Bath, Ohio; Lot H88621). All other organisms were tested in Mueller Hinton II Broth (Becton Dickinson, Lot 6235472). The broth was prepared at 1.05× normal weight/volume to offset the 5% volume of the drugs in the final test plates.
(§4) In order to select the proper test concentrations for each drug combination, minimal inhibitory concentration (MIC) values were first determined using the broth microdilution method previously described (Clinical and Laboratory Standards Institute. Methods for Dilution Antimicrobial Susceptibility Tests for Bacteria That Grow Aerobically; Approved Standard—Seventh Edition. Clinical and Laboratory Standards Institute document M7-A7 [ISBN 1-56238-587-9]. Clinical and Laboratory Standards Institute, 940 West Valley Road, Suite 1400, Wayne, Pa. 19087-1898 USA, 2006).
(§5) The wells of standard 96-well microdilution plates (Falcon 3918) were filled with 150 μL of 100% DMSO using the Multidrop 384. These plates were used to prepare the drug “mother plates” which provided the serial drug dilutions for the drug combination plates. The Biomek 2000 was used to transfer 150 μl of each stock solution (80×) from the wells in Column 1 of a deep well plate to the corresponding wells in Column 1 of the mother plate and to make seven 2-fold serial dilutions. Two mother plates, one for each drug, were combined to form a “checkerboard” pattern by transfer of equal volumes (using a multi-channel pipette) to the drug combination plate. Row H and Column 8 each contained serial dilutions of one of the agents alone for determination of the MIC.
(§6) Plates were stacked 3 high, covered with a lid on the top plate, placed in plastic bags, and incubated at 35° C. for approximately 20 hours. Following incubation, the microplates were removed from the incubator and viewed from the bottom using a ScienceWare plate viewer. Prepared reading sheets were marked for the MIC of drug 1 (row H), the MIC of drug 2 (column 8) and the wells of the growth-no growth interface.

For a further assay, the system named is Staphylococcus aureus. As to the kind of experiment: MIC, broth microdilution (Example 1). Type of assay: cell-based. Conditions: Staphylococcus aureus, ATCC29213, S. aureus 0100 (ATCC 29213), FIC control; read-out: MIC. Here is the method: as §1, §2, §3, §4, §5, §6
The subject of a further assay is HA-MRSA. As to the kind of experiment: Susceptibility testing MIC/MBC, broth microdilution (Example 3). Type of assay: cell-based, Staphylococcus aureus. The note with it: Staphylococcus aureus; for MBC: read-out: MBC; for MIC: read-out: MIC. Here is the method:
Two hundred clinical HA-MRSA isolates, harboring the SCCmecIV type, were evaluated for susceptibility testing. […] Four strains, including 1 hVISA and 1 VISA, characterized by population analysis profile and Macro Etest were selected for time-kill analysis.
Trypose soy agar (TSA; Difco, Detroit, Mich.) was used for colony counting.
Minimum inhibitory concentrations (MIC) and minimum bactericidal concentrations (MBC) were determined by broth microdilution for all antimicrobials, according to the Clinical and Laboratory Standards Institute (CLSI) guidelines (Clinical and Laboratory Standards Institute. 2006. Methods for Dilution Antimicrobial Susceptibility Tests for Bacteria That Grow Aerobically; Approved Standard. 7th ed. Wayne, Pa.: CLSI). MBC values were determined by plating of aliquots of 5 μL from clear wells onto TSA. All susceptibility testing were performed in duplicate.

Another assay has as its system ESBL-producing E. coli. In words: Susceptibility testing MIC/MBC, broth microdilution (Example 2). Type of assay: cell-based, Escherichia coli. Conditions: for MBC / MIC: Escherichia coli; for MBC: read-out: MBC; for MIC: read-out: MIC.
[1] abbreviates: MRSA / VISA, HA-MRSA isolate R2303 (VISA).
Setting [2] is: MRSA, HA-MRSA isolate R3875 (hVISA).

In brackets after ≈: the same amount, converted by molar mass. Read-outs that look alike come from different tables or passages of the source.

In the case of `O=C(N[C@H](CO)[C@H](O)c1ccc([N+](=O)[O-])cc1)C(Cl)Cl` [Chloramphenicol], the minimum inhibitory concentration (MIC) in the assay with Enterococcus faecalis worked out at 8 µg/mL; in the assay on Staphylococcus aureus it was 16 µg/mL.

Turning to `NC[C@H]1O[C@H](O[C@H]2[C@H](O)[C@@H](O[C@H]3O[C@H](CO)[C@@H](O)[C@H](N)[C@H]3O)[C@H](N)C[C@@H]2N)[C@H](N)C[C@@H]1O` [Tobramycin], the minimum bactericidal concentration (MBC) in the assay on HA-MRSA (setting [1]) stood at 0.5 µg/mL (≈ 1.07 µM); in the assay on HA-MRSA (MRSA, HA-MRSA isolate R3804), 1 µg/mL (≈ 2.14 µM); in the assay with HA-MRSA (setting [2]) it was 0.5 µg/mL (≈ 1.07 µM); in the assay on HA-MRSA (MRSA, HA-MRSA isolate R4039) it was 1 µg/mL (≈ 2.14 µM). Further, the minimum inhibitory concentration (MIC) in the assay with HA-MRSA (setting [1]) is 0.125 µg/mL (≈ 0.267 µM); in the assay with HA-MRSA (MRSA, HA-MRSA isolate R3804), 0.5 µg/mL (≈ 1.07 µM); with HA-MRSA (setting [2]), 0.5 µg/mL (≈ 1.07 µM); with HA-MRSA (MRSA, HA-MRSA isolate R4039), 1 µg/mL (≈ 2.14 µM).

Turning to `O=C(O)[C@H]1/C(=C/CO)O[C@@H]2CC(=O)N21` [Clavulanate], the minimum inhibitory concentration (MIC) with Staphylococcus aureus was more than 16 µg/mL.

On to `CO/N=C(\C(=O)N[C@@H]1C(=O)N2C(C(=O)[O-])=C(C[N+]3(C)CCCC3)CS[C@H]12)c1csc(N)n1` [Cefepime], for which, in the assay with ESBL-producing E. coli (E. coli (10) clinical isolates), the MBC range was in the range of 0.25 to 512 µg/mL and the MIC range lay within 0.125 to 256 µg/mL. Further, in the assay with ESBL-producing E. coli (E. coli isolate no. 5401), the MBC was 4 µg/mL (≈ 8.32 µM) and the minimal inhibitory concentration (MIC) came out at 4 µg/mL (≈ 8.32 µM). Further, in the assay with ESBL-producing E. coli (E. coli isolate no. 5411), the minimum bactericidal concentration (MBC) was determined as 4 µg/mL (≈ 8.32 µM) and the minimal inhibitory concentration (MIC) turned out to be 2 µg/mL (≈ 4.16 µM).

For `CC1(C)S[C@@H]2[C@H](NC(=O)[C@H](N)c3ccc(O)cc3)C(=O)N2[C@H]1C(=O)O` [Amoxicillin], the MIC with Staphylococcus aureus is 4 µg/mL.
